Measured values reported in PubChem BioAssay AID2060601 (Molecular Pharmacology Branch, DTP, NCI, 2025).

Tested on: 874868-142-R-J2-PDC complex spheroids, growth % test/control
Test: Anticancer human tumor 874868-142-R-J2-PDC patient-derived head and neck squamous carcinoma cell line growth inhibition [CLK]
Settings: for viability, T/C: stronger effect = lower value
Procedure, shortened: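 Multi-cell-type spheroids combined patient-derived tumor cells with HUVEC endothelial cells and human mesenchymal stem cells. Paired agents were dosed in half-log steps down from about clinical Cmax, or from 10 microM where Cmax was unknown.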

[1] = curve of first compound, second compound 0.0316 µM
[2] = curve of first compound, second compound 0.1 µM
[3] = curve of first compound, second compound 0.316 µM
[4] = curve of first compound, second compound 1 µM
[5] = curve of first compound, second compound 3.16 µM
[6] = curve of first compound, second compound 10 µM
[7] = second compound 0.0316 µM, first compound 0.0316 µM
[8] = second compound 0.0316 µM, first compound 0.1 µM
[9] = second compound 0.0316 µM, first compound 0.316 µM
[10] = second compound 0.0316 µM, first compound 1 µM
[11] = second compound 0.0316 µM, first compound 3.16 µM
[12] = second compound 0.0316 µM, first compound 10 µM
[13] = second compound 0.1 µM, first compound 0.0316 µM
[14] = second compound 0.1 µM, first compound 0.1 µM
[15] = second compound 0.1 µM, first compound 0.316 µM
[16] = second compound 0.1 µM, first compound 1 µM
[17] = second compound 0.1 µM, first compound 3.16 µM
[18] = second compound 0.1 µM, first compound 10 µM
[19] = second compound 0.316 µM, first compound 0.0316 µM
[20] = second compound 0.316 µM, first compound 0.1 µM
[21] = second compound 0.316 µM, first compound 0.316 µM
[22] = second compound 0.316 µM, first compound 1 µM
[23] = second compound 0.316 µM, first compound 3.16 µM
[24] = second compound 0.316 µM, first compound 10 µM
[25] = second compound 1 µM, first compound 0.0316 µM
[26] = second compound 1 µM, first compound 0.1 µM
[27] = second compound 1 µM, first compound 0.316 µM
[28] = second compound 1 µM, first compound 1 µM
[29] = second compound 1 µM, first compound 3.16 µM
[30] = second compound 1 µM, first compound 10 µM
[31] = second compound 3.16 µM, first compound 0.0316 µM
[32] = second compound 3.16 µM, first compound 0.1 µM
[33] = second compound 3.16 µM, first compound 0.316 µM
[34] = second compound 3.16 µM, first compound 1 µM
[35] = second compound 3.16 µM, first compound 3.16 µM
[36] = second compound 3.16 µM, first compound 10 µM
[37] = second compound 10 µM, first compound 0.0316 µM
[38] = second compound 10 µM, first compound 0.1 µM
[39] = second compound 10 µM, first compound 0.316 µM
[40] = second compound 10 µM, first compound 1 µM
[41] = second compound 10 µM, first compound 3.16 µM
[42] = second compound 10 µM, first compound 10 µM
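Note: spheroids exposed to the compounds for 7 days.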
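Throughout, for viability, T/C: 100% = DMSO vehicle control viability.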

**Q.** What does the source list for `CC(Nc1ccc2c(c1)OCCn1cc(N3C(=O)OCC3C(F)F)nc1-2)C(N)=O` (stereo unspecified)?
**A.** viability, T/C (compound 0.0316 µM): 89.2%; viability, T/C (compound 0.1 µM): 38.7%; viability, T/C (compound 0.316 µM): 28.3%; viability, T/C (compound 1 µM): 23.4%; viability, T/C (compound 3.16 µM): 13.5%; viability, T/C (compound 10 µM): 13.2%; IC50 (curve of compound): 82.4 nM

**Q.** What does the source list for `C=CC(=O)N1CCN(c2nc(=O)n(-c3c(C)ccnc3C(C)C)c3nc(-c4c(O)cccc4F)c(F)cc23)C(C)C1` (stereo unspecified) + CN1CCN(c2cc(C(=O)Nc3cc4cc(-c5cnn(C)c5)ccc4cn3)ccn2)CC1?
**A.** IC50 [1]: > 10000 nM; IC50 [2]: > 10000 nM; IC50 [3]: < 31.6 nM; IC50 [4]: < 31.6 nM; IC50 [5]: < 31.6 nM; IC50 [6]: < 31.6 nM; viability, T/C [7]: 86.4%; viability, T/C [8]: 98.4%; viability, T/C [9]: 96.1%; viability, T/C [10]: 131%; viability, T/C [11]: 129%; viability, T/C [12]: 125%; viability, T/C [13]: 81%; viability, T/C [14]: 73.3%; viability, T/C [15]: 82.2%; viability, T/C [16]: 86.3%; viability, T/C [17]: 93.9%; viability, T/C [18]: 109%; viability, T/C [19]: 16.9%; viability, T/C [20]: 16.9%; viability, T/C [21]: 21.9%; viability, T/C [22]: 11.1%; viability, T/C [23]: 17.8%; viability, T/C [24]: 12.2%; viability, T/C [25]: 0.5%; viability, T/C [26]: 0.38%; viability, T/C [27]: 0.54%; viability, T/C [28]: 2.26%; viability, T/C [29]: 0.49%; viability, T/C [30]: 0.41%; viability, T/C [31]: 0.17%; viability, T/C [32]: 2.77%; viability, T/C [33]: 1.11%; viability, T/C [34]: 0.43%; viability, T/C [35]: 0.45%; viability, T/C [36]: 0.24%; viability, T/C [37]: 0.68%; viability, T/C [38]: 0.21%; viability, T/C [39]: 1.43%; viability, T/C [40]: 0.18%; viability, T/C [41]: 0.17%; viability, T/C [42]: 3.04%

**Q.** What does the source list for `CC(CO)NC(=O)c1cc(-c2ccc(Cl)cc2)nn(-c2cnn(C)c2)c1=O` (stereo unspecified) + CNC(=O)c1ccc(Nc2nc(OC3CCCC3)c3c(-c4ccc5nc(C)oc5c4)c[nH]c3n2)c(OC)c1?
**A.** IC50 [1]: > 10000 nM; IC50 [2]: > 10000 nM; IC50 [3]: > 10000 nM; IC50 [4]: < 31.6 nM; IC50 [5]: < 31.6 nM; IC50 [6]: < 31.6 nM; viability, T/C [7]: 98%; viability, T/C [8]: 90.1%; viability, T/C [9]: 90.2%; viability, T/C [10]: 120%; viability, T/C [11]: 125%; viability, T/C [12]: 104%; viability, T/C [13]: 82.2%; viability, T/C [14]: 90%; viability, T/C [15]: 82.6%; viability, T/C [16]: 85.9%; viability, T/C [17]: 94.8%; viability, T/C [18]: 109%; viability, T/C [19]: 50.6%; viability, T/C [20]: 51.4%; viability, T/C [21]: 56.2%; viability, T/C [22]: 48.5%; viability, T/C [23]: 58.5%; viability, T/C [24]: 67.4%; viability, T/C [25]: 52.4%; viability, T/C [26]: 38.1%; viability, T/C [27]: 34.9%; viability, T/C [28]: 43.1%; viability, T/C [29]: 50.8%; viability, T/C [30]: 50.7%; viability, T/C [31]: 40.3%; viability, T/C [32]: 36.8%; viability, T/C [33]: 44.3%; viability, T/C [34]: 41.2%; viability, T/C [35]: 52.4%; viability, T/C [36]: 44.4%; viability, T/C [37]: 34.7%; viability, T/C [38]: 36.4%; viability, T/C [39]: 36.1%; viability, T/C [40]: 33.7%; viability, T/C [41]: 50.9%; viability, T/C [42]: 42.2%
